These results are taken from ChEMBL document CHEMBL4052801, “Design, synthesis and anticancer activity of N-(1-(4-(dibenzo[b,f][1,4]thiazepin-11-yl)piperazin-1-yl)-1-oxo-3-phenylpropan-2-yl derivatives” (Bioorg Med Chem Lett, 2017).

Test [1] concerns the target T1, NAD-dependent protein deacetylase sirtuin-1 (Homo sapiens) (UniProt Q96EB6).
T1 sequence (whole entry): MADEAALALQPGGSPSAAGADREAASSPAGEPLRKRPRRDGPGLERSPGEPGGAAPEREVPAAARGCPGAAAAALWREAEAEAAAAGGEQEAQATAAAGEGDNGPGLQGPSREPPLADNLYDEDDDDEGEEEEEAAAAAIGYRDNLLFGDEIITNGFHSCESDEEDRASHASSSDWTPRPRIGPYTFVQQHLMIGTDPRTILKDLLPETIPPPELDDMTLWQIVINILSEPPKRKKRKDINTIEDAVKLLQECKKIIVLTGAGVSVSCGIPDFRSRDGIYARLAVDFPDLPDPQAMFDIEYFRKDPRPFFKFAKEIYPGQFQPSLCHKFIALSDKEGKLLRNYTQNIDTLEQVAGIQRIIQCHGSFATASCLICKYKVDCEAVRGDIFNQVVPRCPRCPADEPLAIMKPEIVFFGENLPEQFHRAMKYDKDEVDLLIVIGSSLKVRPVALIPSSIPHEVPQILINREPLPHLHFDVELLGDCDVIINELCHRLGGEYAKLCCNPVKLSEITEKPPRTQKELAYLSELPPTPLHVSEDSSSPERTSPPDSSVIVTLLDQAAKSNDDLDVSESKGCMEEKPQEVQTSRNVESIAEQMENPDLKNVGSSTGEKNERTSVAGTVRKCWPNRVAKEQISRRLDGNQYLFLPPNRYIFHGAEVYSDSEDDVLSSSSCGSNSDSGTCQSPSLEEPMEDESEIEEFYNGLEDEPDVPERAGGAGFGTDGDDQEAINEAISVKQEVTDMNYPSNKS
The experiment in a line: Inhibition of human Sirt1 at 10 uM using fluorophore-labelled peptide as substrate measured after 15 mins by fluorescence assay relative to control.

Test [2] relates to MDA-MB-231. The experiment in a line: Cytotoxicity against human MDA-MB-231 cells after 24 hrs by MTT assay. The class given is functional, cell-based. Conditions: MDA-MB-231, 24 h. Background: Tetrazolium dyes change colour on reduction, which living cells bring about.
Test [3] deals with K562. The experiment in a line: Cytotoxicity against human K562 cells after 24 hrs by MTT assay. The class given is functional, cell-based. As to conditions: K562, 24 h.
Test [4] relates to COLO 205. Nature of the test: Cytotoxicity against human COLO205 cells after 24 hrs by MTT assay. The test is classed as functional, cell-based. Conditions: COLO 205, 24 h.

Turning to `CC(C)(C(=O)NC(Cc1ccccc1)C(=O)N1CCN(C2=Nc3ccccc3Sc3ccccc32)CC1)c1ccc(C(=O)C2CC2)cc1` (configuration not stated), the inhibition – broadly, how much of the control response was suppressed – in test [1] is 44%. The IC50 (in general, the concentration that gives 50% inhibition) in test [2] was 34 µM; in test [3], 14 µM; in test [4], 17 µM.
In the case of `CCN(CC)CCNC(=O)c1c(C)[nH]c(/C=C2\C(=O)Nc3ccc(F)cc32)c1C` [SUNITINIB], the IC50 in test [2] amounted to 32 µM; in test [3], 14 µM; in test [4], 8 µM.
`O=C(NC(Cc1ccccc1)C(=O)N1CCN(C2=Nc3ccccc3Sc3ccccc32)CC1)c1cnccn1` (configuration not stated): the inhibition in test [1] was found to be 62%. Moreover, the IC50 in test [2] stood at 38 µM; in test [3], 16 µM; in test [4] it was 15 µM.
Turning to `CCOC(=O)CCCC(=O)NC(Cc1ccccc1)C(=O)N1CCN(C2=Nc3ccccc3Sc3ccccc32)CC1` (configuration not stated), the IC50 was determined as 48 µM in test [2], 20 µM in test [3] and 36 µM in test [4].
Turning to `Cc1ccc(C(=O)NC(Cc2ccccc2)C(=O)N2CCN(C3=Nc4ccccc4Sc4ccccc43)CC2)c(C)c1` (configuration not stated), the IC50 came out at 37 µM in test [2], 35 µM in test [3] and 40 µM in test [4].
With `O=C(CCc1cccc(Cl)c1)NC(Cc1ccccc1)C(=O)N1CCN(C2=Nc3ccccc3Sc3ccccc32)CC1` (configuration not stated), the values for the IC50 in test [2], in test [3] and in test [4] were 59 µM, 27 µM and 16 µM, respectively.
Turning to `O=C(NC(Cc1ccccc1)C(=O)N1CCN(C2=Nc3ccccc3Sc3ccccc32)CC1)c1ccc(OC(F)F)cc1` (configuration not stated), the inhibition in test [1] is 71%. Also, the IC50 came out at 39 µM in test [2], 12 µM in test [3] and 10 µM in test [4].
`CS(=O)(=O)c1ccc(CC(=O)NC(Cc2ccccc2)C(=O)N2CCN(C3=Nc4ccccc4Sc4ccccc43)CC2)cc1` (configuration not stated): the figures for the IC50 in test [2], in test [3] and in test [4] were 56 µM, 28 µM and 32 µM, respectively.
For `Cc1ccc(C(=O)NC(Cc2ccccc2)C(=O)N2CCN(C3=Nc4ccccc4Sc4ccccc43)CC2)cc1I` (configuration not stated), the IC50 worked out at 59 µM in test [2], 36 µM in test [3] and 45 µM in test [4].
For `COC(=O)CCCC(=O)NC(Cc1ccccc1)C(=O)N1CCN(C2=Nc3ccccc3Sc3ccccc32)CC1` (configuration not stated) the same measures were 64 µM, 19 µM and 28 µM.
The like results for `O=C(Cc1ccc2c(c1)OCO2)NC(Cc1ccccc1)C(=O)N1CCN(C2=Nc3ccccc3Sc3ccccc32)CC1` (configuration not stated) were, in that order, 52 µM, 35 µM and 24 µM.
The like results for `N#Cc1ccc(C(=O)NC(Cc2ccccc2)C(=O)N2CCN(C3=Nc4ccccc4Sc4ccccc43)CC2)cc1` (configuration not stated) were, in that order, 61 µM, 24 µM and 29 µM.
Regarding `Cc1ccc(C)c(C(=O)NC(Cc2ccccc2)C(=O)N2CCN(C3=Nc4ccccc4Sc4ccccc43)CC2)c1` (configuration not stated), the inhibition in test [1] stood at 54%. The figures for the IC50 in test [2], in test [3] and in test [4] were 34 µM, 16 µM and 12 µM, respectively.
Turning to `Cc1ccc(C(=O)NC(Cc2ccccc2)C(=O)N2CCN(C3=Nc4ccccc4Sc4ccccc43)CC2)cn1` (configuration not stated), the half-maximal inhibitory concentration (IC50) in test [2] came to 54 µM; in test [3] it was 39 µM; in test [4] it was 34 µM.
As to `Cc1ccc(Br)cc1C(=O)NC(Cc1ccccc1)C(=O)N1CCN(C2=Nc3ccccc3Sc3ccccc32)CC1` (configuration not stated), the IC50 in test [2] is 49 µM; in test [3], 27 µM; in test [4], 16 µM.
On to `CC(=O)CCCC(=O)NC(Cc1ccccc1)C(=O)N1CCN(C2=Nc3ccccc3Sc3ccccc32)CC1` (configuration not stated), for which the IC50 in test [2] was 52 µM; in test [3], 32 µM; in test [4], 33 µM.
The like results for `CCc1ccc(C(=O)NC(Cc2ccccc2)C(=O)N2CCN(C3=Nc4ccccc4Sc4ccccc43)CC2)cc1` (configuration not stated) were, in that order, 44 µM, 21 µM and 25 µM.
Consider `O=C(NC(Cc1ccccc1)C(=O)N1CCN(C2=Nc3ccccc3Sc3ccccc32)CC1)c1ccoc1` (configuration not stated), for which the inhibition in test [1] is 51%. In addition, the IC50 in test [2] is 37 µM; in test [3], 17 µM; in test [4] it was 14 µM.
For `O=C(NC(Cc1ccccc1)C(=O)N1CCN(C2=Nc3ccccc3Sc3ccccc32)CC1)c1ccc(I)cc1` (configuration not stated), the results for the IC50 in test [2], in test [3] and in test [4] were 55 µM, 26 µM and 28 µM, respectively.
